Data on 1 compound can be found in patent publication US20150258197A1, “EUTECTIC ISOMETHEPTENE MUCATE” (TONIX PHARMA HOLDINGS LIMITED, priority 2014, published 2015).

Structures are written as SMILES.

Series [1] concerns mice. Put plainly: Hot Plate Test. The format is in vivo. To be noted: mouse, hot plate 54° C., 10, 30 and 100 mg/kg p.o. 15 minutes before the test. The source says: (§1) Common mouse models for pain include the Formalin Test (Wheeler-Aceto, et al., Psychopharmacology, 104, 35-44, 1991), the Hot Plate Test (Eddy and Leimbach, J. Pharmacol. Exp. Ther., 107, 385-393, 1953), and the Tail-flick Test (D'Amour and Smith, J. Pharmacol. Exp. Ther., 1, 74-79, 1941). These methods detect analgesic activity of compositions of interest. In the Formalin Test, mice are given an intraplantar injection of 5% formalin into one posterior hindpaw to induce paw licking. Test compositions are given to the mice before treatment with formalin and the mice are evaluated and compared to a control group. In the Hot Plate Test, mice are placed onto a hot metal plate maintained at 54° C. and the latency to the first foot-lick is measured. As with the Formalin test, compositions of interest are given to the mice before the test and the mice are evaluated and compared to a control group. In the Tail-flick Test, a mouse's tail is heated by means of a thermal light source, and the latency before the animal withdraws its tail is measured. […]
Mice were placed onto a hot metal plate maintained at 54° C. surrounded by a Plexiglas cylinder (height: 13 cm; diameter: 19 cm). The latency to the first foot-lick was measured (maximum: 30 seconds). […]
Data with the test substance were analyzed by comparing treated groups with vehicle control using ANOVA followed by post-hoc Dunnett's tests. […]

Series [2] can be described thus: DSC/XRPD of binary mixtures of isometheptene mucate and mannitol (eutectic formation). To be noted: binary mixtures at different ratios. The format is physicochemical. The method, then:
Because mannitol is a common excipient in solid drug formulations, it was examined for compatibility with racemic isometheptene mucate and investigated using DSC and the interactions occurring were assessed. […] To confirm the formation of a eutectic and to characterize its physical properties, several binary mixtures at different ratios of racemic isometheptene mucate and excipient were prepared and analyzed by DSC and by XRPD. The eutectic formation improved the cohesion between the racemic isometheptene mucate and excipient particles and assured better physical linking between the two.
In order to confirm the eutectic formation and to characterize its physical properties, several binary mixtures at different ratios of racemic isometheptene mucate-excipient were prepared and analyzed by DSC and by X-ray powder diffraction (XRPD). […] For each DSC heating curve, the onset temperature and the enthalpy were evaluated both for the eutectic contribute and for the excess of component. The recorded values were plotted and a phase diagram between the two components was obtained with a characteristic profile of phase diagrams of eutectic mixtures. […]
Aliquots of racemic isometheptene mucate API and mannitol were weighed in the ratios described below and ground in an agate mortar, and the homogeneous mixtures subsequently analyzed. […]

The subject of series [3] is mice. Put plainly: Formalin Test, late phase (licking score). The format is in vivo. To be noted: mouse, 5% formalin intraplantar, three doses p.o. 15 minutes before the test, 15-50 min after formalin.
Excerpt: as §1
Mice were given an intraplantar injection of 5% formalin (25 μL) into one posterior hindpaw. […] Mice were briefly observed at one minute intervals between 15 and 50 minutes after the injection of formalin and the number of occasions that the mice were observed licking the injected paw was recorded. […]

As to `CN[C@H](C)CCC=C(C)C` [(R)-isometheptene mucate], the “Foot-licking latency compared to vehicle” value in series [1] is on record as “longer foot-licking latency times”. Further, in series [2], the “Interaction with mannitol (eutectic vs adduct)” value is given as “only a physical eutectic formation”. Also, the “Licking score compared to vehicle” value in series [3] is “reduction in licking score”.
